Measurements reported in the NIST ThermoML archive (doi:10.1021/acs.jced.7b00386).
± gives the expanded uncertainty stated by the source.

Details: Liquid; for mass density: Siemens ultrasonic flowmeter; for viscosity: Capillary tube (Ostwald / Ubbelohde) method

CCCCCCC(=O)OCC [ethyl heptanoate]
Details | mass density [kg/m3] | viscosity [mPa·s]
303.1 K, 6000 kPa | 867.7 ± 5 | –
303.19 K, 14980 kPa | 877.5 ± 5 | –
303.2 K, 100 kPa | 860.8 ± 5 | –
303.2 K, 3020 kPa | 864.5 ± 5 | –
303.2 K, 9010 kPa | 871.2 ± 5 | –
303.21 K, 11950 kPa | 874.5 ± 5 | –
312.72 K, 9120 kPa | – | 1.006 ± 0.017
312.73 K, 100 kPa | – | 0.9036 ± 0.015
312.77 K, 6100 kPa | – | 0.9702 ± 0.016
312.8 K, 3100 kPa | – | 0.9452 ± 0.016
312.96 K, 100 kPa | 851.2 ± 5 | –
313.06 K, 3060 kPa | 854.7 ± 5 | –
313.1 K, 12180 kPa | – | 1.033 ± 0.017
313.13 K, 6090 kPa | 858.1 ± 5 | –
313.17 K, 9070 kPa | 861.4 ± 5 | –
313.17 K, 15010 kPa | 867.9 ± 5 | –
313.17 K, 15170 kPa | – | 1.06 ± 0.018
313.18 K, 12000 kPa | 864.7 ± 5 | –
322.62 K, 100 kPa | – | 0.7963 ± 0.013
322.71 K, 3120 kPa | – | 0.8252 ± 0.014
322.76 K, 15110 kPa | – | 0.9293 ± 0.016
322.78 K, 6130 kPa | – | 0.8471 ± 0.014
322.85 K, 9090 kPa | – | 0.8702 ± 0.015
322.91 K, 12080 kPa | – | 0.9036 ± 0.015
323.09 K, 100 kPa | 841.6 ± 5 | –
323.09 K, 15150 kPa | 859.2 ± 5 | –
323.1 K, 9100 kPa | 852.5 ± 5 | –
323.11 K, 3100 kPa | 845.2 ± 5 | –
323.13 K, 12060 kPa | 855.8 ± 5 | –
323.14 K, 6110 kPa | 848.8 ± 5 | –
333.05 K, 100 kPa | 832.1 ± 5 | –
333.14 K, 3010 kPa | 835.6 ± 5 | –
333.14 K, 9020 kPa | 843.2 ± 5 | –
333.14 K, 12010 kPa | 846.8 ± 5 | –
333.18 K, 6080 kPa | 839.7 ± 5 | –
333.2 K, 15070 kPa | 850.5 ± 5 | –
333.42 K, 15070 kPa | – | 0.8106 ± 0.014
333.45 K, 100 kPa | – | 0.7016 ± 0.012
333.5 K, 12100 kPa | – | 0.7844 ± 0.013
333.57 K, 3070 kPa | – | 0.7229 ± 0.012
333.6 K, 9160 kPa | – | 0.7629 ± 0.013
333.63 K, 6130 kPa | – | 0.7431 ± 0.013
343.02 K, 100 kPa | 823 ± 5 | –
343.06 K, 3010 kPa | 827.1 ± 5 | –
343.16 K, 100 kPa | – | 0.6217 ± 0.01
343.19 K, 15000 kPa | 842.1 ± 5 | –
343.2 K, 9000 kPa | 834.8 ± 5 | –
343.22 K, 9070 kPa | – | 0.6801 ± 0.011
343.22 K, 12050 kPa | – | 0.6996 ± 0.012
343.22 K, 12100 kPa | 838.5 ± 5 | –
343.23 K, 6050 kPa | 831 ± 5 | –
343.27 K, 3070 kPa | – | 0.6412 ± 0.011
343.27 K, 15120 kPa | – | 0.7191 ± 0.012
343.38 K, 6080 kPa | – | 0.6593 ± 0.011
352.71 K, 100 kPa | – | 0.5547 ± 0.0094
352.83 K, 3040 kPa | – | 0.5733 ± 0.0097
352.85 K, 100 kPa | 815.1 ± 5 | –
352.86 K, 6100 kPa | – | 0.5898 ± 0.01
352.9 K, 9030 kPa | – | 0.6068 ± 0.01
352.95 K, 3090 kPa | 819.4 ± 5 | –
352.95 K, 12080 kPa | – | 0.6227 ± 0.011
353.04 K, 15040 kPa | – | 0.6414 ± 0.011
353.06 K, 9090 kPa | 827.5 ± 5 | –
353.11 K, 6070 kPa | 823.2 ± 5 | –
353.14 K, 12070 kPa | 831.2 ± 5 | –
353.23 K, 15010 kPa | 835.1 ± 5 | –

CCCCCCCC(=O)OCC [ethyl octanoate]
Details | mass density [kg/m3] | viscosity [mPa·s]
303.25 K, 100 kPa | 858.1 ± 5 | –
303.26 K, 12080 kPa | 871 ± 5 | –
303.3 K, 6080 kPa | 864.4 ± 5 | –
303.32 K, 3120 kPa | 861.3 ± 5 | –
303.32 K, 9130 kPa | 867.8 ± 5 | –
303.33 K, 15080 kPa | 874.1 ± 5 | –
312.87 K, 100 kPa | – | 1.083 ± 0.018
312.96 K, 3120 kPa | – | 1.133 ± 0.019
313.03 K, 6060 kPa | – | 1.189 ± 0.02
313.05 K, 100 kPa | 849.5 ± 5 | –
313.08 K, 6150 kPa | 856.1 ± 5 | –
313.08 K, 9090 kPa | – | 1.211 ± 0.02
313.1 K, 9150 kPa | 859.6 ± 5 | –
313.1 K, 12100 kPa | 862.7 ± 5 | –
313.11 K, 15110 kPa | 865.9 ± 5 | –
313.12 K, 3140 kPa | 853 ± 5 | –
313.12 K, 12070 kPa | – | 1.245 ± 0.021
313.14 K, 15240 kPa | – | 1.284 ± 0.022
323 K, 100 kPa | 841.1 ± 5 | –
323.07 K, 100 kPa | – | 0.9464 ± 0.016
323.09 K, 3130 kPa | 844.7 ± 5 | –
323.1 K, 6150 kPa | 848.1 ± 5 | –
323.13 K, 9110 kPa | 851.4 ± 5 | –
323.14 K, 12140 kPa | 854.8 ± 5 | –
323.16 K, 3150 kPa | – | 0.9842 ± 0.017
323.16 K, 15050 kPa | 858.1 ± 5 | –
323.17 K, 6110 kPa | – | 1.016 ± 0.017
323.17 K, 9080 kPa | – | 1.043 ± 0.017
323.17 K, 12070 kPa | – | 1.064 ± 0.018
323.19 K, 15060 kPa | – | 1.098 ± 0.018
333 K, 100 kPa | 832.2 ± 5 | –
333.14 K, 100 kPa | – | 0.8143 ± 0.014
333.14 K, 3100 kPa | 836.2 ± 5 | –
333.18 K, 6080 kPa | 839.7 ± 5 | –
333.18 K, 9090 kPa | 843.3 ± 5 | –
333.2 K, 12100 kPa | 846.9 ± 5 | –
333.21 K, 15100 kPa | 850.3 ± 5 | –
333.29 K, 3110 kPa | – | 0.8536 ± 0.014
333.3 K, 6060 kPa | – | 0.8851 ± 0.015
333.3 K, 9130 kPa | – | 0.9101 ± 0.015
333.3 K, 15090 kPa | – | 0.9551 ± 0.016
333.31 K, 12040 kPa | – | 0.9301 ± 0.016
342.78 K, 100 kPa | – | 0.731 ± 0.012
343.07 K, 6130 kPa | – | 0.7776 ± 0.013
343.1 K, 12150 kPa | 838.8 ± 5 | –
343.11 K, 100 kPa | 823.6 ± 5 | –
343.11 K, 3120 kPa | 827.8 ± 5 | –
343.14 K, 6100 kPa | 831.7 ± 5 | –
343.16 K, 9070 kPa | 835 ± 5 | –
343.16 K, 9090 kPa | – | 0.7968 ± 0.013
343.17 K, 15000 kPa | 842.1 ± 5 | –
343.22 K, 12100 kPa | – | 0.8165 ± 0.014
343.27 K, 15050 kPa | – | 0.8446 ± 0.014
343.41 K, 3120 kPa | – | 0.7572 ± 0.013
353.1 K, 100 kPa | 814.5 ± 5 | –
353.16 K, 9130 kPa | 826.8 ± 5 | –
353.21 K, 100 kPa | – | 0.6393 ± 0.011
353.21 K, 3150 kPa | 819 ± 5 | –
353.24 K, 15070 kPa | 834.4 ± 5 | –
353.25 K, 12140 kPa | 830.7 ± 5 | –
353.27 K, 6150 kPa | 823 ± 5 | –
353.32 K, 3120 kPa | – | 0.6742 ± 0.011
353.35 K, 6090 kPa | – | 0.691 ± 0.012
353.35 K, 12080 kPa | – | 0.7292 ± 0.012
353.36 K, 15060 kPa | – | 0.7479 ± 0.013
353.38 K, 9070 kPa | – | 0.707 ± 0.012
